Data published in US5418232A, “Diazabicycloalkene derivatives” (Daiichi Pharmaceutical Co., Ltd., priority 1992, dated 1995).

Columns and labels:
[1] = system: spontaneously hypertensive rats; experiment: Antihypertensive activity in spontaneously hypertensive rats (oral, tail-cuff); format: in vivo, rat; settings: for ED (50 mmHg): Rattus norvegicus, systolic blood pressure, read-out: ED50mmHg (effective dose for reducing blood pressure by 50 mmHg); for Max. increase of Heat Rate / Time for Onset of Max. Activity: dose reducing blood pressure by 50 to 60 mmHg
Method: Male spontaneously hypertensive rats (16 to 20-week-old; body weight: 300-400 g) fed ab lib. were forceably given oral administration of a test compound suspended in 0.5% (w/v) carboxymethyl cellulose aqueous solution. After 1, 2, 4, 6, 8, 24, 30 or 48 hours from the administration, the systolic blood pressure was measured by a tail-cuff method described in Arzneimittel-Forschung, Vol. 18, pp. 1285-1287 (1968)).
The antihypertensive activity of the test compound was obtained as an effective dose for reducing blood pressure by 50 mmHg (ED50mmHg). Further, the time of onset of the maximum activity and the maximum increase in heart rate at a dose for reducing blood pressure by 50 to 60 mmHg were measured.
The statistical difference between a test compound and EMD57283 was analyzed by the Student's t-test.

[2] = system: spontaneously hypertensive rats; experiment: Effect on renal blood flow (Doppler probe); format: in vivo, rat; settings: for Increase in Renal Blood Flow 1 Hr after Administration: oral, dose which reduced blood pressure by about 50 mmHg; for activity in increasing the renal blood flow vs reference drug (in words): vs EMD57283
Method: Twenty-week-old male spontaneously hypertensive rats (body weight: 350-430 g) were anesthetized with pentobarbital (30 mg/kg, i.p.). An incision was made in the abdomen on the left side, and a Doppler probe for blood flow measurement was fitted to the left renal artery, and the code (wire lead) of the probe was passed under the back skin and taken out from the back of the neck. After 1 week from the operation, the code of the probe was connected to a Doppler blood flow meter to start measurement of the renal blood flow. After the renal blood flow reached to a steady state, a test compound was orally administered, and changes in renal blood flow were observed up to 9 hours. The test compound was used at a dose which reduced blood pressure by about 50 mmHg.

[3] = target: T1, Potassium channel (Rattus norvegicus, UniProt Q63563); experiment: Potassium channel opening activity, 86Rb release from excised rat aorta segment; format: cell-based, Wistar rat; settings: for potassium channel opening activity (in words): conclusion from Table 5; for ECAUC0.2 (effective concentration at which the area under the peak of the 86Rb release rate reached 0.2): rat aorta segment surface-perfused with test compound for 10 minutes
T1 construct: a segment of an excised aorta of a Wistar rat; from tissue; host or cells: excised aorta segment of Wistar rat
T1 sequence (Q63563 1-1545 isoform Q63563-2): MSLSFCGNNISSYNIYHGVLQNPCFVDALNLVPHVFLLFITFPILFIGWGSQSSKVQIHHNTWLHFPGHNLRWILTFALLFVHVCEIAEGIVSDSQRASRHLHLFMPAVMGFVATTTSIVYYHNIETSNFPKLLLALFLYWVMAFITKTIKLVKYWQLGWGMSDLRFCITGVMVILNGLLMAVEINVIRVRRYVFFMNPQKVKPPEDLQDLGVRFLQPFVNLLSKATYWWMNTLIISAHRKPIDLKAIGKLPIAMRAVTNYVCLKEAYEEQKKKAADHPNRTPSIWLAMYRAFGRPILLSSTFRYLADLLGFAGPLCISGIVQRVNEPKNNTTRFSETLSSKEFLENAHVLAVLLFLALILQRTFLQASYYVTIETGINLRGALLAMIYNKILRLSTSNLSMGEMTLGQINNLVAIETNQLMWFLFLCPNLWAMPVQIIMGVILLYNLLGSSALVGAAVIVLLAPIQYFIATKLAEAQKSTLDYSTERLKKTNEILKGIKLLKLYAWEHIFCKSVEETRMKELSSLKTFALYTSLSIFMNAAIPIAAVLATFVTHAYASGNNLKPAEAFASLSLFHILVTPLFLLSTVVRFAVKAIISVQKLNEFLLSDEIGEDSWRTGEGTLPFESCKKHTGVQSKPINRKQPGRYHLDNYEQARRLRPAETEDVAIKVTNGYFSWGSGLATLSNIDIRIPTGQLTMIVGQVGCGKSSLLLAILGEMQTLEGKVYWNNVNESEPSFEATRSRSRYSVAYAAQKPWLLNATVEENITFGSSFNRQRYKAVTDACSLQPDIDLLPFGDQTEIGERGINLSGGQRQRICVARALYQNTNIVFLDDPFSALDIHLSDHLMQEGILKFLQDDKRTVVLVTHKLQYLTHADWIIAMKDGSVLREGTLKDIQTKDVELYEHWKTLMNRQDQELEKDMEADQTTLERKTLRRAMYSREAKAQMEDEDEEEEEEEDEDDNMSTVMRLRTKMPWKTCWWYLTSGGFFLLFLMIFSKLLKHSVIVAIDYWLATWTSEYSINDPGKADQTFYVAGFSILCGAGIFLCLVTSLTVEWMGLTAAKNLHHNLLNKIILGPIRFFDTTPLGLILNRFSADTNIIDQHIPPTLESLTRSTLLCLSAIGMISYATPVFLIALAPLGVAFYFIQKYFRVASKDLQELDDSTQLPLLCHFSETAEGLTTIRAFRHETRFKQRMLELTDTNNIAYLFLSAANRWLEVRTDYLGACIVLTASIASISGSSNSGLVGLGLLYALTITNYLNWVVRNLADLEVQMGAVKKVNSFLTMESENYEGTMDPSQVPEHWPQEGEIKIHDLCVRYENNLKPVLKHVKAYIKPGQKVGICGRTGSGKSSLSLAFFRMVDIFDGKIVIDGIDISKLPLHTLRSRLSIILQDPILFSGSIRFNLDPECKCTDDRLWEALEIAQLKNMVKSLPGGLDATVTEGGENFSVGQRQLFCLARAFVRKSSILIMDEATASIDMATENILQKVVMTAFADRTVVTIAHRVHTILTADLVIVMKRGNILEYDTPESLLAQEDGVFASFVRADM
T1 sequence (Q63664 whole entry partner, the tested form may be a part): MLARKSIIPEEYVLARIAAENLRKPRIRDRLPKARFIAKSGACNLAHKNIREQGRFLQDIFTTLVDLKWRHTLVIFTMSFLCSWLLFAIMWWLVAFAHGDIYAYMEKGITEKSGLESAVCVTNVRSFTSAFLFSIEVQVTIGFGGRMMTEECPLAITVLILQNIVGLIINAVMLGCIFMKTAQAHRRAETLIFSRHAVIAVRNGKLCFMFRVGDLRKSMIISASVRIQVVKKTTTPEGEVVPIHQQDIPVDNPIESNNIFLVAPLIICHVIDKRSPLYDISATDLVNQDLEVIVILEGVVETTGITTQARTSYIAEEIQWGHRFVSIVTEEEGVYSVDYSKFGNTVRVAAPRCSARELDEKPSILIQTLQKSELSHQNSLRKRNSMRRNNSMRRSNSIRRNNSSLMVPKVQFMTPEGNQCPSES

[4] = system: Guinea Pig Tracheae; experiment: Relaxing activity in guinea pig tracheae contracted with 30 mM potassium chloride; format: cell-based; settings: for EC50: Cavia porcellus, relaxation by 10^-8 g/ml isoproterenol as 100%, read-out: EC50 (concentration inducing 50% relaxation)
Method: Male guinea pigs (body weight: 400-650 g) were sacrificed by exsanguination, and tracheae were excised.
Tracheal responses were measured isometrically using a transducer "EF-601G" (manufactured by Nihon Koden Kogyo Co., Ltd.) and recorded on a multi-pen recorder "R64 GP" (manufactured by Rika Denki Co., Ltd.). The initial tension in the tracheal preparation was set up at 1 g after the preparation had equilibrated for about 60 minutes, a 30 mM potassium chloride was added to cause contraction.

Row | SMILES | antihypertensive activity (in words) [1] | duration of activity (in words) [1] | ED (50 mmHg) [1] | Max. increase of Heat Rate [1] | Time for Onset of Max. Activity [1] | Increase in Renal Blood Flow 1 Hr after Administration [2] | activity in increasing the renal blood flow vs reference drug (in words) [2] | potassium channel opening activity (in words) [3] | ECAUC0.2 (effective concentration at which the area under the peak of the 86Rb release rate reached 0.2) [3] | activity in relaxing tracheal smooth muscle vs cromakalim (in words) [4] | EC50 [4]
1 | CC1(C)Oc2ccc(C#N)cc2[C@@H](OC2=NN(Cc3ccc(Cl)cc3Cl)C(=O)C3CC23)[C@@H]1O (relative stereo) [Example 37, (3S,4R,1'R*,6'S*)-4-(3-(2,4-dichlorobenzyl)-2-oxo-3,4-diazabicyclo[4.1.0]hept-4-en-5-yloxy)-3,4-dihydro-2,2-dimethyl-3-hydroxy-2H-1-benzopyran-6-carbonitrile] | potent antihypertensive activity | long duration of activity | 0.035 mg/kg | 9.2 ± 1.7% | 7.6 ± 0.4 h | – | – | – | – | – | –
2 | CC1(C)Oc2ccc(C#N)cc2[C@@H](OC2=NN(Cc3c(Cl)cccc3Cl)C(=O)C3CC23)[C@@H]1O (relative stereo) [Example 36, (3S,4R,1'R*,6'S*)-4-(3-(2,6-dichlorobenzyl)-2-oxo-3,4-diazabicyclo[4.1.0]hept-4-en-5-yloxy)-3,4-dihydro-2,2-dimethyl-3-hydroxy-2H-1-benzopyran-6-carbonitrile] | potent antihypertensive activity | long duration of activity | 0.4 mg/kg | 9.6 ± 1.3% | 6.8 ± 0.5 h | 15.4 ± 4.5% | more potent activity in increasing the renal blood flow than the reference drug | – | – | – | –
3 | C=CCN1N=C(O[C@@H]2c3cc(C#N)ccc3OC(C)(C)[C@H]2O)C2CC2C1=O (relative stereo) [Example 23, (3S,4R,1'R*,6'S*)-4-(3-allyl-2-oxo-3,4-diazabicyclo[4.1.0]hept-4-en-5-yloxy)-3,4-dihydro-2,2-dimethyl-3-hydroxy-2H-1-benzopyran-6-carbonitrile] | – | – | – | – | – | – | – | possesses potassium channel opening activity | 0.18 | more potent activity in relaxing tracheal smooth muscle than cromakalim | 5.5 µM
4 | C#CCN1N=C(O[C@@H]2c3cc(C#N)ccc3OC(C)(C)[C@H]2O)C2CC2C1=O (relative stereo) [Example 24, (3S, 4R, 1'R*,6'S*)-3,4-dihydro-2,2-dimethyl-3-hydroxy-4-(2-oxo-3-(2-propyn-1-yl)-3,4-diazabicyclo[4.1.D]hept-4-en-5-yloxy)-2H-1-benzopyran-6-carbonitrile] | potent antihypertensive activity | long duration of activity | 0.02 mg/kg | 22.2 ± 2.3% | 5.6 ± 1.2 h | – | – | – | – | – | –
5 | CC1(C)Oc2ccc(C#N)cc2[C@@H](OC2=NN(Cc3ccccc3)C(=O)[C@H]3C[C@@H]23)[C@@H]1O [Example 21, (3S, 4R, 1'S, 6'R)-4-(3-Benzyl-2-oxo-3,4-diazabicyclo[4.1.0]hept-4-en-5-yloxy)-3,4-dihydro-2,2-dimethyl-3-hydroxy-2H-1-benzopyran-6-carbonitrile] | potent antihypertensive activity | long duration of activity | 0.053 mg/kg | 19.7 ± 3.0% | 6.4 ± 0.5 h | 59.4 ± 9.7% | more potent activity in increasing the renal blood flow than the reference drug | – | – | – | –
6 | CC(C)=CCN1N=C(O[C@@H]2c3cc(C#N)ccc3OC(C)(C)[C@H]2O)C2CC2C1=O (relative stereo) [Example 29, (3S,4R,1'R*,6'S*)-3,4-dihydro-2,2-dimethyl-3-hydroxy-4-(3-(3-methyl-2-buten-1-yl)-2-oxo-3,4-diazabicyclo[4.1.0]hept-4-en-5-yloxy)-2H-1-benzopyran-6-carbonitrile] | – | – | – | – | – | – | – | – | – | more potent activity in relaxing tracheal smooth muscle than cromakalim | 3 µM
7 | CN1N=C(O[C@@H]2c3cc(C#N)ccc3OC(C)(C)[C@@]2(C)O)C2CC2C1=O (relative stereo) [Example 56, (3S,4R,1'R*,6'S*)-3,4-Dihydro-3-hydroxy-4-(3-methyl-2-oxo-3,4-diazabicyclo[4.1.0]hept-4-en-5-yloxy)-2,2,3-trimethyl-2H-1-benzopyran-6-carbonitrile] | potent antihypertensive activity | long duration of activity | 0.0023 mg/kg | 19.2 ± 0.5% | 6.4 ± 0.4 h | – | – | possesses potassium channel opening activity | 0.021 | – | –
8 | CN1N=C(O[C@@H]2c3cc(C#N)ccc3OC(C)(C)[C@H]2O)C2CC2C1=O (relative stereo) [Example 22, (3S,4R,1'R*,6'S*)-3,4-dihydro-2,2-dimethyl-3-hydroxy-4-(3-methyl-2-oxo-3,4-diazabicyclo(4.1.0]hept-4-en-5-yloxy)-2H-benzopyran-6-carbonitrile] | – | – | – | – | – | – | – | possesses potassium channel opening activity | 0.18 | – | –
9 | CCCCN1N=C(O[C@@H]2c3cc(C#N)ccc3OC(C)(C)[C@H]2O)C2CC2C1=O (relative stereo) [Example 32, (3S,4R,1'R*,6'S*)-4-(3-n-butyl-2-oxo-3,4-diazabicyclo(4.1.0]hept-4-en-5-yloxy)-3,4-dihydro-2,2-dimethyl-3-hydroxy-2H-1-benzopyran-6-carbonitrile] | potent antihypertensive activity | long duration of activity | 0.076 mg/kg | 22.3 ± 5.9% | 6.0 ± 0.6 h | – | – | – | – | more potent activity in relaxing tracheal smooth muscle than cromakalim | 5 µM
10 | Cn1nc(O[C@@H]2c3cc(C#N)ccc3OC(C)(C)[C@H]2O)ccc1=O [EMD57283, (3S,4R)3,4-Dihydro-4-((1,6-dihydro-1-methyl-6-oxo-3-pyridazinyl)oxy)-2,2-imethyl-3-hydroxy-2H-1-benzopyran-6-carbonitrile, reference compound] | – | – | 0.0064 mg/kg | 41.3 ± 2.8% | 2.8 ± 0.7 h | 10.8 ± 4.1% | – | – | 0.16 | – | –
